Test results from US12043600B2, “Microbiocidal compounds” (SYNGENTA CROP PROTECTION AG, priority 2018, dated 2024).

Experiments:
[1] = test system: Mycosphaerella arachidis (Cercospora arachidicola); assay: Mycosphaerella arachidis (Cercospora arachidicola)/Liquid Culture (Early Leaf Spot); format: cell-based; settings: liquid culture, compared to untreated control
In short: (§1)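 First, the test compound in DMSO is placed in the wells. Next, potato dextrose broth seeded with conidia taken straight from cryogenic storage is added, and the culture is left to grow.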

Alternaria solani = assay: Alternaria solani/Tomato/Leaf Disc (Early Blight); format: in vivo; settings: foliar, tomato leaf disc, compared to untreated control
Method: Tomato leaf disks cv. Baby are placed on agar in multiwell plates (24-well format) and sprayed with the formulated test compound diluted in water. The leaf disks are inoculated with a spore suspension of the fungus 2 days after application. The inoculated leaf disks are incubated at 23° C./21° C. (day/night) and 80% rh (relative humidity) under a light regime of 12/12 h (light/dark) in a climate cabinet and the activity of a compound is assessed as percent disease control compared to untreated when an appropriate level of disease damage appears on untreated check disk leaf disks (5-7 days after application).

[2] = test system: Puccinia recondita f. sp. tritici; assay: Puccinia recondita f. sp. tritici/Wheat/Leaf Disc Curative (Brown Rust); format: in vivo; settings: foliar, wheat leaf disc curative, compared to untreated control
In short: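 Curative leaf-disc test on wheat cv. Kanzler segments on agar, spore-inoculated and kept dark at 19° C, 75% rh; formulated compound in water applied 1 day after inoculation. Incubated at 19° C, 75% rh, 12 h light/12 h dark; percent disease control versus untreated scored 6-8 days after application.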

[3] = test system: Mycosphaerella graminicola (Septoria tritici); assay: Mycosphaerella graminicola (Septoria tritici)/Liquid Culture (Septoria Blotch); format: cell-based; settings: Zymoseptoria tritici; 20 ppm; liquid culture; compared to untreated control
In short: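 Conidia from cryogenic storage mixed into potato dextrose broth and added to microtiter wells already holding DMSO solutions of test compound. Activity expressed as percentage disease control.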

[4] = test system: Puccinia recondita f. sp. tritici; assay: Puccinia recondita f. sp. tritici/Wheat/Leaf Disc Preventative (Brown Rust); format: in vivo; settings: foliar, 200 ppm, wheat leaf disc preventative, compared to untreated control, read-out: control of Puccinia recondita f. sp. tritici
[5] = test system: Monographella nivalis (Microdochium nivale); assay: Monographella nivalis (Microdochium nivale)/Liquid Culture (Foot Rot Cereals); format: cell-based; settings: liquid culture, compared to untreated control
In short: as §1

[6] = test system: Glomerella lagenarium (Colletotrichum lagenarium); assay: Glomerella lagenarium (Colletotrichum lagenarium)/Liquid Culture (Anthracnose); format: cell-based; settings: Colletotrichum orbiculare, liquid culture, compared to untreated control
[7] = test system: Blumeria graminis f. sp. tritici (Erysiphe graminis f. sp. tritici); assay: Blumeria graminis f. sp. tritici/Wheat/Leaf Disc Preventative (Powdery Mildew on Wheat); format: in vivo; settings: foliar, wheat leaf disc preventative, compared to untreated control
In short: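 Wheat cv. Kanzler leaf segments on agar sprayed with formulated compound, inoculated with powdery mildew 1 day later and held at 20° C, 60% rh (24 h dark, then 12 h light/12 h dark). Percent disease control versus untreated scored 6-8 days after application.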

[8] = test system: Botryotinia fuckeliana (Botrytis cinerea); assay: Botryotinia fuckeliana (Botrytis cinerea)/Liquid Culture (Gray Mould); format: cell-based; settings: liquid culture, compared to untreated control
Method: Conidia of the fungus from cryogenic storage are directly mixed into nutrient broth (Vogels broth). After placing a (DMSO) solution of test compound into a microtiter plate (96-well format), the nutrient broth containing the fungal spores is added.

[9] = test system: Magnaporthe grisea (Pyricularia oryzae); assay: whole plant or invertebrate; format: in vivo; settings: foliar, read-out: control of Magnaporthe grisea
Phakopsora pachyrhizi = assay: Phakopsora pachyrhizi/Soybean/Preventative (Soybean Rust); format: in vivo; settings: foliar, 288 h, 200 ppm, soybean leaf disc preventative, compared to untreated control, read-out: control of Phakopsora pachyrhizi
Plasmopara viticola = assay: whole plant or invertebrate; format: in vivo; settings: foliar, read-out: control of Plasmopara viticola
Phytophthora infestans = assay: whole plant or invertebrate; format: in vivo; settings: in Solanum lycopersicum, foliar, read-out: control of Phytophthora infestans
[10] = test system: Phaeosphaeria nodorum (Septoria nodorum); assay: Phaeosphaeria nodorum (Septoria nodorum)/Wheat/Leaf Disc Preventative (Glume Blotch); format: in vivo; settings: Parastagonospora nodorum, foliar, wheat leaf disc preventative, compared to untreated control
In short: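 Wheat cv. Kanzler leaf discs on agar were sprayed with formulated compound diluted in water and inoculated with P. nodorum spores 2 days later. Discs kept at 20 °C, 75% rh, 12 h light/dark; percent disease control versus untreated scored 5–7 days after application.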

Pyrenophora teres = assay: Pyrenophora teres/Barley/Leaf Disc Preventative (Net Blotch); format: in vivo; settings: foliar, 200 ppm, barley leaf disc preventative, compared to untreated control, read-out: control of Pyrenophora teres
Description: Barley leaf segments cv. Hasso are placed on agar in a multiwell plate (24-well format) and sprayed with the formulated test compound diluted in water. The leaf segments are inoculated with a spore suspension of the fungus 2 days after application. […] The data are presented as the percentage of disease control of each compound for the biological tests against G. lagenarium (Example B3), P. recondita preventative (Example B13), P. teres (Example B15) and M. graminicola (Example B19) as described above. The testing rates of each biological test is specifically described in table C1 below.

| Compound | inhibition of growth at 20 ppm [1] [%] | pest or weed control at 200 ppm (Alternaria solani) [%] | pest or weed control at 200 ppm [2] [%] | inhibition of growth at 20 ppm [3] [%] | pest or weed control at 200 ppm [4] [%] | inhibition of growth at 20 ppm [5] [%] | inhibition of growth at 20 ppm [6] [%] | pest or weed control at 200 ppm [7] [%] | inhibition of growth at 20 ppm [8] [%] | melting point [°C] | pest or weed control at 200 ppm [9] [%] | pest or weed control at 200 ppm (Phakopsora pachyrhizi) [%] | pest or weed control at 200 ppm (Plasmopara viticola) [%] | pest or weed control at 200 ppm (Phytophthora infestans) [%] | pest or weed control at 200 ppm [10] [%] | pest or weed control at 200 ppm (Pyrenophora teres) [%] |
| --- | --- | --- | --- | --- | --- | --- | --- | --- | --- | --- | --- | --- | --- | --- | --- | --- |
| CO/C=C(\Oc1cccc(-n2ccc(C(F)(F)F)n2)c1)C(=O)OC [Compound E-15, methyl (Z)-3-methoxy-2-[3-[3-(trifluoromethyl)pyrazol-1-yl]phenoxy]prop-2-enoate] | ≥ 80 | ≥ 80 | ≥ 80 | ≥ 80 | ≥ 80 | ≥ 80 | ≥ 80 | ≥ 80 |  |  |  |  |  |  |  |  |
| CO/C=C(\Oc1cc(-n2ccc(C(F)(F)F)n2)c(C)cc1C)C(=O)OC [Compound E-16, methyl (Z)-2-[2,4-dimethyl-5-[3-(trifluoromethyl)pyrazol-1-yl]phenoxy]-3-methoxy-prop-2-enoate] | ≥ 80 | ≥ 80 | ≥ 80 | ≥ 80 | ≥ 80 | ≥ 80 | ≥ 80 | ≥ 80 | ≥ 80 | 96 to 98 |  |  |  |  |  |  |
| CO/C=C(\Oc1cc(-n2ccc(C)n2)c(C)cc1C)C(=O)OC [Compound E-17, methyl (Z)-2-[2,4-dimethyl-5-(3-methylpyrazol-1-yl)phenoxy]-3-methoxy-prop-2-enoate] | ≥ 80 | ≥ 80 | ≥ 80 | ≥ 80 | ≥ 80 | ≥ 80 |  | ≥ 80 |  | 123 to 124 |  |  |  |  |  |  |
| CO/C=C(\Oc1cc(-n2ccc(C(F)(F)F)n2)c(Cl)cc1C)C(=O)OC [Compound E-27, methyl (Z)-2-[4-chloro-2-methyl-5-[3-(trifluoromethyl)pyrazol-1-yl]phenoxy]-3-methoxy-prop-2-enoate] | ≥ 80 | ≥ 80 | ≥ 80 | ≥ 80 | ≥ 80 | ≥ 80 | ≥ 80 | ≥ 80 |  |  | ≥ 80 | ≥ 50 | ≥ 80 |  |  |  |
| CO/C=C(\Oc1cc(-n2ccc(C(C)C)n2)c(Cl)cc1C)C(=O)OC [Compound E-29, methyl (Z)-2-[4-chloro-5-(3-isopropylpyrazol-1-yl)-2-methyl-phenoxy]-3-methoxy-prop-2-enoate] | ≥ 80 | ≥ 80 | ≥ 80 | ≥ 80 | ≥ 80 | ≥ 80 | ≥ 80 | ≥ 80 | ≥ 80 | 96 to 98 | ≥ 80 |  | ≥ 80 | ≥ 80 | ≥ 80 |  |
| CO/C=C(\Oc1cc(-n2ccc(C)n2)c(F)cc1C)C(=O)OC [Compound E-64, methyl (Z)-2-[4-fluoro-2-methyl-5-(3-methylpyrazol-1-yl)phenoxy]-3-methoxy-prop-2-enoate] | ≥ 80 | ≥ 80 | ≥ 80 | ≥ 80 |  | ≥ 80 | ≥ 80 | ≥ 80 | ≥ 80 | 134 to 138 | ≥ 80 | ≥ 50 | ≥ 80 |  |  |  |
| CO/C=C(\Oc1cc(-n2cc(C(F)(F)F)cn2)ccc1C)C(=O)OC [Compound E-81, methyl (Z)-3-methoxy-2-[2-methyl-5-[4-(trifluoromethyl)pyrazol-1-yl]phenoxy]prop-2-enoate] | ≥ 80 |  |  | ≥ 80 | ≥ 80 | ≥ 80 | ≥ 80 | ≥ 80 | ≥ 80 | 102 to 105 | ≥ 80 | ≥ 50 | ≥ 80 | ≥ 80 | ≥ 80 | ≥ 80 |
| CO/C=C(\Oc1cc(-n2ccc(Cl)n2)ccc1Br)C(=O)OC [Compound E-85, methyl (Z)-2-[2-bromo-5-(3-chloropyrazol-1-yl)phenoxy]-3-methoxy-prop-2-enoate] | ≥ 80 | ≥ 80 |  | ≥ 80 | ≥ 80 | ≥ 80 | ≥ 80 | ≥ 80 | ≥ 80 |  | ≥ 80 | ≥ 50 | ≥ 80 |  | ≥ 80 |  |
| CO/C=C(\Oc1cc(-n2ccc(C3CC3)n2)ccc1Cl)C(=O)OC [Compound E-99, methyl (Z)-2-[2-chloro-5-(3-cyclopropylpyrazol-1-yl)phenoxy]-3-methoxy-prop-2-enoate] | ≥ 80 | ≥ 80 | ≥ 80 | ≥ 80 | ≥ 80 | ≥ 80 | ≥ 80 | ≥ 80 | ≥ 80 |  | ≥ 80 | ≥ 50 | ≥ 80 | ≥ 80 | ≥ 80 |  |
| CO/C=C(\Oc1cc(-n2cc(C)c(C3CCCCC3)n2)ccc1C)C(=O)OC [Compound E-113, methyl (Z)-2-[5-(3-cyclohexyl-4-methyl-pyrazol-1-yl)-2-methyl-phenoxy]-3-methoxy-prop-2-enoate] | ≥ 80 | ≥ 80 |  | ≥ 80 | ≥ 80 | ≥ 80 | ≥ 80 |  |  | 145 to 148 | ≥ 80 |  | ≥ 80 | ≥ 80 | ≥ 80 |  |
| CO/C=C(\Oc1cc(-n2ncc(C(C)C)n2)ccc1C)C(=O)OC [Compound F-4, methyl (Z)-2-[5-(4-isopropyltriazol-2-yl)-2-methyl-phenoxy]-3-methoxy-prop-2-enoate] | ≥ 80 | ≥ 80 |  | ≥ 80 |  | ≥ 80 | ≥ 80 | ≥ 80 |  |  | ≥ 80 |  | ≥ 80 | ≥ 80 | ≥ 80 | ≥ 80 |
